Data on 31 compounds can be found in publication PMC10328330 (PLOS ONE, 2023).

Data set [1] is described as follows: Cytotoxicity in mammalian cells (MTT assay). The note with it: human, HFF cells. In general terms: Tetrazolium dyes change colour on reduction, which living cells bring about.
Data set [2] relates to T. gondii tachyzoites (RH strain, clone 2F1). Briefly: microbe, parasite or virus in culture. The format is cell-based, Toxoplasma gondii. The note with it: for EC50: 72 h, read-out: EC50 ± SD against T. gondii tachyzoites.
Data set [3] concerns HFF cells. Briefly: Cytotoxicity in mammalian cells (MTT assay). As to conditions: read-out: CC50 ± SD against HFF cells; HFF, 72 h, MTT; highest tested concentration 50 μM; ± SD of two independent experiments.
Data set [4] deals with T. gondii. On the set-up: method as in PMID 23019377. As to conditions: T. gondii-infected mice, after 16 days of treatment, cited from earlier work.
Data set [5] in a line: in vitro. As to conditions: human.
Where [6] appears, read: Toxoplasma gondii, RH-2F1 tachyzoites in HFF, β-galactosidase readout, ± SD of two independent experiments.
Where [7] appears, read: CC50 HFF cells/EC50 T. gondii ratio.
Setting [8] is: RH-2F1 tachyzoites in HFF, β-galactosidase readout, ± SD of two independent experiments.

Where two headings read alike, the source gives them in different places. Numbered stars: 1 amine (or outer) side, 2 acyl side, 3 side chain; on linkers, the order of the positions; unused ones are H or OH. Bridge positions count the residues as written; N and C are the ends. Square brackets hold non-standard residues; d marks the D form. Peptide text beside a SMILES is read from it. * marks the point of attachment. pTerphenylCO(4''-OnC5H11) = CCCCCOc1ccc(-c2ccc(-c3ccc(C(=O)*)cc3)cc2)cc1; Orn(4R-OH,5R-OH) = O=C([C@H](C[C@@H](O)[C@@H](O)N[*:3])N[*:1])[*:2]; hTyr(3S-OH,4S-OH) = N[C@H](C(=O)O)[C@H](O)[C@@H](O)c1ccc(O)cc1; Pro(3S-OH,4S-Me) = C[C@H]1CN[C@H](C(=O)O)[C@H]1O; Hyp = O=C(O)[C@@H]1C[C@@H](O)CN1 Bounds are passed on as bounds.

By EC50 is commonly meant the concentration at which the effect is half-maximal. Turning to `CCC(C)n1ncn(-c2ccc(N3CCN(c4ccc(OCC5COC(Cn6cncn6)(c6ccc(Cl)cc6Cl)O5)cc4)CC3)cc2)c1=O` (stereo not drawn) [Compound 5, Itraconazole], the CC50 at 72 h in data set [1] was more than 50000 nM. The EC50 in data set [2] (setting [6]) came out at 100 ± 10 nM.
Consider `COc1ccc2cc1Oc1ccc(cc1)C[C@H]1c3cc(c(OC)cc3CCN1C)Oc1c(O)c(OC)cc3c1[C@H](C2)N(C)CC3` [Compound 20, Hanfangchin B], for which the CC50 in data set [3] came to 45000 ± 5850 nM. Moreover, the “Selectivity Index (SI)” value in data set [2] (setting [7]) is on record as 54. The EC50 in data set [2] (setting [8]) turned out to be 840 ± 190 nM.
In data set [1], `O=c1[nH]c2ccccc2n1C1CCN(CCCC(c2ccc(F)cc2)c2ccc(F)cc2)CC1` [Compound 29, Pimozide] displayed a CC50 at 72 h of more than 50000 nM. In addition, in data set [2], the “Selectivity Index (SI)” value is more than 61. Further, the EC50 in data set [2] (setting [6]) came to 820 ± 220 nM.
As for `C=CCNc1nc(NCC=C)nc(N2CCN(C(c3ccc(F)cc3)c3ccc(F)cc3)CC2)n1` [Compound 11, Almitrine], in data set [1], the CC50 at 72 h is more than 50000 nM. The EC50 in data set [2] (setting [6]) was 320 ± 140 nM.
`COc1cc2[nH]c(C)c(-c3ccc(Oc4ccc(OC(F)(F)F)cc4)cc3)c(=O)c2cc1F` [ELQ-316]: the “reduction of the number of brain cysts” value in data set [4] (25 mg/kg) is given as 88%.
Take `CCN1CCN(Cc2ccc(Nc3ncc(F)c(-c4cc(F)c5nc(C)n(C(C)C)c5c4)n3)nc2)CC1` [Compound 12, Abemaciclib]: the CC50 at 72 h in data set [1] is more than 50000 nM. For the same compound, the EC50 in data set [2] (setting [6]) was 50 ± 20 nM.
`O=C(O)c1ccc2c(c1)nc(Nc1cccc(Cl)c1)c1ccncc12` [Compound 22, Silmitasertib] came in with a CC50 at 72 h in data set [1] of 38400 ± 16400 nM. Also, the EC50 in data set [2] (setting [6]) came to 870 ± 150 nM.
`O=C1NCN(c2ccccc2)C12CCN(CCCC(c1ccc(F)cc1)c1ccc(F)cc1)CC2` [Compound 14, Fluspirilene] gave a CC50 at 72 h in data set [1] of more than 50000 nM. In addition, the EC50 in data set [2] (setting [6]) is 760 ± 70 nM.
On to `COc1cccc2c1CCCC2CCCN1CCN(C2CCCCC2)CC1` (stereo not drawn) [Compound 23, PB 28], for which the CC50 in data set [3] was more than 50000 nM. Also, in data set [2] (setting [7]), the “Selectivity Index (SI)” value was more than 102. Further, in data set [2] (setting [8]), the EC50 stood at 490 ± 210 nM.
In data set [5], `COc1cc(NC(=O)Nc2cccc(CNC(=O)O[C@H]3CCOC3)c2)ccc1-c1cnco1` [Compound 24, Merimepodib] showed a CC50 of 26400 ± 10000 nM. Besides, the EC50 in data set [2] (setting [6]) worked out at 780 ± 270 nM.
On to `CNC(=O)c1cc(Oc2ccc(NC(=O)Nc3ccc(Cl)c(C(F)(F)F)c3)cc2)ccn1` [Compound 9, Sorafenib], for which the CC50 at 72 h in data set [1] was 12400 ± 3170 nM. Moreover, the EC50 in data set [2] (setting [6]) was found to be 650 ± 250 nM.
Consider `C[C@@H](C1CCCCC1)n1c(-c2cc3c(cc2Br)OCO3)nc2cc(C(=O)Nc3ccc(C#N)cc3)ccc21` [Compound 26, AZ3451], for which, in data set [3], the CC50 is more than 50000 nM. The “Selectivity Index (SI)” value in data set [2] (setting [7]) is reported as more than 55. Moreover, the EC50 in data set [2] (setting [8]) stood at 910 ± 90 nM.
For `CCc1nc(N)nc(N)c1-c1ccc(Cl)cc1` [Compound 30, Pyrimetamine], the CC50 at 72 h in data set [1] was more than 50000 nM. Moreover, the EC50 in data set [2] (setting [6]) came to 370 ± 80 nM.
In data set [5], `CCSc1ccc2c(c1)N(CCCN1CCN(C)CC1)c1ccccc1S2` [Compound 21, Thiethylperazine] gave a CC50 at 72 h of 33100 ± 6010 nM. Also, the “Selectivity Index (SI)” value in data set [2] came out at 37. Moreover, in data set [2] (setting [6]), the EC50 was found to be 900 ± 110 nM.
On to `COc1cc2c3cc1Oc1c(OC)c(OC)cc4c1[C@@H](Cc1ccc(O)c(c1)Oc1ccc(cc1)C[C@@H]3N(C)CC2)N(C)CC4` [Compound 18, Berbamine], for which the CC50 in data set [5] is 45300 ± 5400 nM. In data set [2] (setting [7]), the “Selectivity Index (SI)” value amounted to 61. In addition, the EC50 in data set [2] (setting [6]) came to 740 ± 340 nM.
For `CCCCCOc1ccc(-c2ccc(-c3ccc(C(=O)N[C@H]4C[C@@H](O)[C@@H](O)NC(=O)[C@@H]5[C@@H](O)[C@@H](C)CN5C(=O)[C@H]([C@@H](C)O)NC(=O)[C@H]([C@H](O)[C@@H](O)c5ccc(O)cc5)NC(=O)[C@@H]5C[C@@H](O)CN5C(=O)[C@H]([C@@H](C)O)NC4=O)cc3)cc2)cc1` [Compound 19, Anidulafungin] ({pTerphenylCO(4''-OnC5H11)}-[Orn(4R-OH,5R-OH)]T[Hyp][hTyr(3S-OH,4S-OH)]T[Pro(3S-OH,4S-Me)]; lactam 1-C), in that order: 38900 ± 15700 nM, 47 and 830 ± 210 nM.
Compound `CN(C)[C@@H]1C(O)=C(C(N)=O)C(=O)[C@@]2(O)C(O)=C3C(=O)c4c(O)cccc4[C@@](C)(O)[C@H]3C[C@@H]12` [Compound 15, Tetracycline] yielded a CC50 in data set [5] of more than 50000 nM. Also, in data set [2] (setting [6]), the EC50 was 910 ± 90 nM.
With `CNC(=O)c1cc(Oc2ccc(NC(=O)Nc3ccc(Cl)c(C(F)(F)F)c3)c(F)c2)ccn1` [Compound 4, Regorafenib], the CC50 at 72 h in data set [5] was determined as 11600 ± 2190 nM. For the same compound, the “Selectivity Index (SI)” value in data set [2] (setting [7]) is reported as 29. Besides, the EC50 in data set [2] (setting [6]) stood at 400 ± 150 nM.
As for `O=C1C(O)=C([C@H]2CC[C@H](c3ccc(Cl)cc3)CC2)C(=O)c2ccccc21` [Atovaquone], the “reduction of the number of brain cysts” value in data set [4] (5 mg/kg) is reported as 44%.
As for `CO[C@H]1C[C@@H]2CC[C@@H](C)[C@@](O)(O2)C(=O)C(=O)N2CCCC[C@H]2C(=O)O[C@H]([C@H](C)C[C@@H]2CC[C@@H](O)[C@H](OC)C2)CC(=O)[C@H](C)/C=C(\C)[C@@H](O)[C@@H](OC)C(=O)[C@H](C)C[C@H](C)/C=C/C=C/C=C/1C` [Compound 17, Rapamycin], the CC50 at 72 h in data set [5] is more than 50000 nM. Besides, the “Selectivity Index (SI)” value in data set [2] was more than 65. Further, the EC50 in data set [2] (setting [6]) stood at 770 ± 300 nM.
In data set [5], `CN(C)CCOc1ccc(/C(=C(/CCCl)c2ccccc2)c2ccccc2)cc1` [Compound 16, Toremifene] registered a CC50 at 72 h of 44300 ± 6800 nM. The EC50 in data set [2] (Toxoplasma gondii) came to 850 ± 180 nM.
In the case of `CCOc1ccc(Cc2nccc3cc(OCC)c(OCC)cc23)cc1OCC` [Compound 3, Ethaverine], the CC50 at 72 h in data set [5] is more than 50000 nM. In addition, in data set [2], the “Selectivity Index (SI)” value is on record as more than 54. Further, in data set [2] (setting [6]), the EC50 is 920 ± 90 nM.
As for `Nc1nc(Nc2ccc3c(c2)CC[C@@H](N2CCCC2)CC3)nn1-c1cc2c(nn1)-c1ccccc1CCC2` [Compound 2, Bemcentinib], in data set [5], the CC50 at 72 h is 31600 ± 5520 nM. In data set [2] (setting [7]), the “Selectivity Index (SI)” value came to 83. The 50% effective concentration (EC50) in data set [2] (setting [6]) stood at 380 ± 190 nM.
The corresponding values for `COC(=O)C1=C(C)NC(C)=C(C(=O)OCCN2CCN(C(c3ccccc3)c3ccccc3)CC2)C1c1cccc([N+](=O)[O-])c1` (stereo not drawn) [Compound 10, Manidipine] are more than 50000 nM, more than 71 and 700 ± 250 nM.
As for `C[C@@H]1C[C@@H]([C@H](O)CC2CC(=O)NC(=O)C2)C(=O)[C@@H](C)C1` [Compound 25, Cycloheximide], the CC50 in data set [5] is 2480 ± 80 nM. For the same compound, the EC50 in data set [2] (setting [6]) stood at 40 ± 20 nM.
For `O=C(Nc1ccc([N+](=O)[O-])cc1Cl)c1cc(Cl)ccc1O` [Compound 1, Niclosamide], in data set [1], the CC50 at 72 h turned out to be 35500 ± 9570 nM. Further, the “Selectivity Index (SI)” value in data set [2] is listed as 83. Moreover, the EC50 in data set [2] (setting [6]) came out at 430 ± 150 nM.
In turn, `CC(C)(C)Cn1c(N)nc2ccc(-c3[nH]c(C(C)(C)C)nc3-c3ccc(F)cc3)nc21` [Compound 7, LY 2228820] registered a CC50 in data set [5] of 26600 ± 11600 nM. The “Selectivity Index (SI)” value in data set [2] (setting [7]) came out at 116. Further, the EC50 in data set [2] (setting [6]) came to 230 ± 10 nM.
In data set [1], `OC(CNCC(O)C1CCc2cc(F)ccc2O1)C1CCc2cc(F)ccc2O1` (stereo not drawn) [Compound 28, Nebivolol] showed a CC50 at 72 h of 37100 ± 2880 nM. The “Selectivity Index (SI)” value in data set [2] is 48. The EC50 in data set [2] (setting [6]) was 780 ± 280 nM.
As to `COc1ccc2cc1Oc1ccc(cc1)C[C@H]1c3cc(c(OC)cc3CCN1C)Oc1c(OC)c(OC)cc3c1[C@H](C2)N(C)CC3` [Compound 13, Tetrandrine], the CC50 in data set [5] was 34700 ± 17000 nM. In data set [2], the “Selectivity Index (SI)” value is on record as 71. In addition, the EC50 in data set [2] (setting [6]) came to 490 ± 150 nM.
`Nc1nc2nc[nH]c2c(=S)[nH]1` [Compound 6, Tioguanine]: the CC50 at 72 h in data set [1] is more than 50000 nM. In addition, the “Selectivity Index (SI)” value in data set [2] is more than 109. For the same compound, in data set [2] (Toxoplasma gondii), the EC50 stood at 460 ± 190 nM.
With `CNCc1[cH-]ccc1CNc1ccnc2cc(Cl)ccc12.[Fe+2].c1cc[cH-]c1` [Compound 27, Desmethyl ferroquine], the CC50 in data set [3] stood at 38200 ± 15600 nM. The “Selectivity Index (SI)” value in data set [2] (setting [7]) is reported as 71. In addition, the half-maximal effective concentration (EC50) in data set [2] (setting [8]) is 540 ± 20 nM.
